From EP4810038A1, “METHOD FOR TREATING ALK-POSITIVE OR ROS1-POSITIVE NON-SMALL CELL LUNG CANCER” (Shenzhen TargetRx Co., Ltd., priority 2023, dated 2025)
Read-outs that look alike come from different tables or passages of the source.

Experiment: Phase I clinical trial: pharmacokinetics after single and multiple oral administrations
Assay type: in vivo, human
Details: for AR / Cmax / AUC / AUC(0-inf) / AUC(0-t) / half-life: GM (%CV); for Cmax / Tmax / AUC / AUC(0-inf) / AUC(0-t) / half-life: human, plasma, oral; for Tmax: Median (min-max); for AUC: read-out: AUC0-τ
Source text: The PK parameters for single-dose administration mainly include peak concentration (Cmax), time to peak concentration (Tmax), half-life (T1/2), systemic clearance (CL), volume of distribution (Vd), AUC0-t, and AUC0-∞. The PK parameters for multiple-dose administration mainly include the area under the steady-state plasma concentration-time curve (AUCss), steady-state peak plasma concentration (Cmax, ss), steady-state trough plasma concentration (Cmin, ss), and steady-state time to peak plasma concentration (Tmax, ss).
Approximately eight dose groups in total were set in the dose escalation phase, which were 5 (the starting dose), 10, 20, 40, 60, 80, 100, and 125 mg, respectively. Subjects in all the dose groups received a single dose on day 1 (D1), and the blood samples were collected for pharmacokinetic (PK) assay and tolerability observation. If no grade 2 or a higher-level adverse event related to the investigational drug occurred during the single-dose period (5 to 7 days) (if such events occurred, dose adjustments would be made based on the toxicity according to the protocol), the subject entered the multiple-dose period (i.e., treatment period) 5 to 7 days later (7 days after the first administration in the first dose group (i.e., starting the multiple-dose treatment on day 8), and the intervals for the subsequent dose groups were determined based on the obtained tolerability and PK data). After entering the multiple-dose period, the subjects in the first dose group were initially administered with the drug once daily (QD) (if the PK data for the single-dose period had been obtained, the administration frequency for the multiple-dose period could be determined based on the PK data). The administration frequency for the subjects in the subsequent dose groups after entering the multiple-dose period was determined based on the obtained PK and tolerability data. In this trial, the administration frequency for all the subjects could be adjusted throughout the trial based on the continuously acquired safety and PK data. The four lower dose groups (5 mg, 10 mg, 20 mg and 40 mg) used an accelerated titration design, with one subject enrolled in each dose group. If any grade 2 or a higher-level adverse event related to the investigational drug occurred, the "3+3" dose escalation method would be switched to. The 60 mg dose group and the subsequent dose groups followed a "3+3" dose escalation method, and the MTD was determined. After the evaluation of the 8th dose group, if the researcher and the sponsor agreed that a higher dose group might have better efficacy and manageable safety, then a higher dose could be explored (e.g., the 9th dose group and the 10th dose group, at 150 mg and 180 mg, respectively). During the dose escalation, if a dose group was confirmed to have a preliminary antitumor effect and manageable safety (e.g., no DLT occurred in 3 subjects or only 1 out of 6 subjects experienced DLT), the dose level could be expanded after a discussion and confirmation by the researcher and the sponsor.
All the subjects in the dose escalation phase and dose expansion phase of this research needed to undergo intensive blood collection for PK study of the compound A, and all the subjects needed to undergo a population PK study of the compound A.

[1] = Multiple administrations, 40 mg
[2] = Multiple administrations, 60 mg
[3] = Multiple administrations, 80 mg
[4] = Multiple administrations, 100 mg
[5] = Multiple administrations, 125 mg

[2H]C([2H])([2H])n1nc2c(c1C#N)-c1cnc(N)c(c1)O[C@H](C)c1cc(F)ccc1C(=O)N(C)C2 [compound A, (10R)-7-amino-12-fluoro-2-(methyl-d3)-10,16-dimethyl-15-oxo-10,15,16,17-tetrahydro-2H-8,4-(metheno)pyrazolo[4,3-h][2,5,11]benzoxadiazacyclotetradecine-3-carbonitrile]
AR [1]: 1.044(25 .1) [3] | AR [2]: 0.913(44.1 ) [3] | AR [3]: 1.256(45.9) [4] | AR [4]: 0.732(6 6.4) [3] | AR [5]: 0.606(36. 1) [3] | Cmax (40 mg, Multiple administrations, 40 mg, read-out: Cmax, SS): 387 ng/mL | Tmax (40 mg, Multiple administrations): 1 h | Cmax (40 mg, Single administration, 40 mg, read-out: Cmax): 392 ng/mL | Tmax (40 mg, Single administration): 0.98 h | Cmax (60 mg, Multiple administrations, 60 mg, read-out: Cmax, SS): 644 ng/mL | Tmax (60 mg, Multiple administrations): 0.533 h | Cmax (60 mg, Single administration, 60 mg, read-out: Cmax): 875 ng/mL | Tmax (60 mg, Single administration): 0.5 h | Cmax (80 mg, Multiple administrations, 80 mg, read-out: Cmax, SS): 589 ng/mL | Tmax (80 mg, Multiple administrations): 1.56 h | Cmax (80 mg, Single administration, 80 mg, read-out: Cmax): 524 ng/mL | Tmax (80 mg, Single administration): 0.7 h | Cmax (100 mg, Multiple administrations, 100 mg, read-out: Cmax, SS): 798 ng/mL | Tmax (100 mg, Multiple administrations): 1.97 h | Cmax (100 mg, Single administration, 100 mg, read-out: Cmax): 774 ng/mL | Tmax (100 mg, Single administration): 1.02 h | Cmax (125 mg, Multiple administrations, 125 mg, read-out: Cmax, SS): 987 ng/mL | Tmax (125 mg, Multiple administrations): 0.5 h | Cmax (125 mg, Single administration, 125 mg, read-out: Cmax): 1260 ng/mL | Tmax (125 mg, Single administration): 1.02 h | AUC [1]: 3880 ng·h/mL | AUC [2]: 5440 ng·h/mL | AUC [3]: 5500 ng·h/mL | AUC [4]: 7020 ng·h/mL | AUC [5]: 7700 ng·h/mL | AUC(0-inf) (Single administration, 40 mg): 4710 ng·h/mL | AUC(0-t) (Single administration, 40 mg): 4440 ng·h/mL | half-life (Single administration, 40 mg): 27.8 h | AUC(0-inf) (Single administration, 60 mg): 12200 ng·h/mL | AUC(0-t) (Single administration, 60 mg): 11300 ng·h/mL | half-life (Single administration, 60 mg): 33.6 h | AUC(0-inf) (Single administration, 80 mg): 10100 ng·h/mL | AUC(0-t) (Single administration, 80 mg): 9140 ng·h/mL | half-life (Single administration, 80 mg): 34.2 h | AUC(0-inf) (Single administration, 100 mg): 14600 ng·h/mL | AUC(0-t) (Single administration, 100 mg): 13800 ng·h/mL | half-life (Single administration, 100 mg): 30.5 h | AUC(0-inf) (Single administration, 125 mg): 18700 ng·h/mL | AUC(0-t) (Single administration, 125 mg): 17800 ng·h/mL | half-life (Single administration, 125 mg): 29.2 h
